Laboratory results taken from PubChem BioAssay (NCI).
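Here, GI50 denotes the concentration required for 50% inhibition of growth. At the TGI there is no net growth.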

Assays:
Experiment in all cases: DTP human tumour cell line panel, 384-well format
NCI-H322M lung = system: NCI-H322M lung
SF-295 CNS = system: SF-295 CNS
SW-620 colon = system: SW-620 colon
NCI/ADR-RES ovarian = system: NCI/ADR-RES ovarian
HT29 colon = system: HT29 colon
MCF7 breast = system: MCF7 breast
RPMI-8226 leukemia = system: RPMI-8226 leukemia
HCC-2998 colon = system: HCC-2998 colon
T-47D breast = system: T-47D breast
SF-539 CNS = system: SF-539 CNS
SNB-75 CNS = system: SNB-75 CNS
DU-145 prostate = system: DU-145 prostate
UACC-62 melanoma = system: UACC-62 melanoma
PC-3 prostate = system: PC-3 prostate
SN12C renal = system: SN12C renal
HL-60(TB) leukemia = system: HL-60(TB) leukemia
OVCAR-8 ovarian = system: OVCAR-8 ovarian
A498 renal = system: A498 renal
SK-MEL-28 melanoma = system: SK-MEL-28 melanoma
HCT-15 colon = system: HCT-15 colon
MALME-3M melanoma = system: MALME-3M melanoma
OVCAR-5 ovarian = system: OVCAR-5 ovarian
OVCAR-4 ovarian = system: OVCAR-4 ovarian
COLO 205 colon = system: COLO 205 colon
ACHN renal = system: ACHN renal
SR leukemia = system: SR leukemia
HOP-92 NSCLC = system: HOP-92 NSCLC
EKVX NSCLC = system: EKVX NSCLC
RXF 393 renal = system: RXF 393 renal
LOX IMVI melanoma = system: LOX IMVI melanoma
MOLT-4 leukemia = system: MOLT-4 leukemia
CCRF-CEM leukemia = system: CCRF-CEM leukemia
NCI-H23 lung = system: NCI-H23 lung
K-562 leukemia = system: K-562 leukemia
BT-549 breast = system: BT-549 breast
NCI-H226 lung = system: NCI-H226 lung
A549 NSCLC = system: A549 NSCLC
HS 578T breast = system: HS 578T breast
OVCAR-3 ovarian = system: OVCAR-3 ovarian
M14 melanoma = system: M14 melanoma
TK-10 renal = system: TK-10 renal
SK-MEL-5 melanoma = system: SK-MEL-5 melanoma
MDA-MB-231 breast = system: MDA-MB-231 breast
KM12 colon = system: KM12 colon
CAKI-1 renal = system: CAKI-1 renal
UO-31 renal = system: UO-31 renal
SK-OV-3 ovarian = system: SK-OV-3 ovarian
HOP-62 NSCLC = system: HOP-62 NSCLC
MDA-MB-435 melanoma = system: MDA-MB-435 melanoma
SNB-19 CNS = system: SNB-19 CNS
786-0 renal = system: 786-0 renal
MDA-MB-468 breast = system: MDA-MB-468 breast
NCI-H522 lung = system: NCI-H522 lung
NCI-H460 NSCLC = system: NCI-H460 NSCLC
UACC-257 melanoma = system: UACC-257 melanoma
IGROV1 ovarian = system: IGROV1 ovarian
SF-268 CNS = system: SF-268 CNS

Structure (SMILES): O=C(CC1(O)C(=O)Nc2c(Cl)ccc(Cl)c21)c1ccc(C2CC2)cc1 (centres undefined)
- GI50 (NCI-H322M lung): 845 nM
- TGI (NCI-H322M lung): 18000 nM
- GI50 (SF-295 CNS): 112 nM
- TGI (SF-295 CNS): 853 nM
- GI50 (SW-620 colon): 45.7 nM
- TGI (SW-620 colon): 15500 nM
- GI50 (NCI/ADR-RES ovarian): 69.2 nM
- TGI (NCI/ADR-RES ovarian): 276 nM
- GI50 (HT29 colon): 50.5 nM
- TGI (HT29 colon): 248 nM
- GI50 (MCF7 breast): 111 nM
- TGI (MCF7 breast): 13500 nM
- GI50 (RPMI-8226 leukemia): 133 nM
- TGI (RPMI-8226 leukemia): 271 nM
- GI50 (HCC-2998 colon): 277 nM
- TGI (HCC-2998 colon): 4610 nM
- GI50 (T-47D breast): 323 nM
- TGI (T-47D breast): 18200 nM
- GI50 (SF-539 CNS): 206 nM
- TGI (SF-539 CNS): 907 nM
- GI50 (SNB-75 CNS): 96.7 nM
- TGI (SNB-75 CNS): 3170 nM
- GI50 (DU-145 prostate): 338 nM
- TGI (DU-145 prostate): 2490 nM
- GI50 (UACC-62 melanoma): 38.9 nM
- TGI (UACC-62 melanoma): 5040 nM
- GI50 (PC-3 prostate): 372 nM
- TGI (PC-3 prostate): 14400 nM
- GI50 (SN12C renal): 575 nM
- TGI (SN12C renal): 20100 nM
- GI50 (HL-60(TB) leukemia): 37.7 nM
- TGI (HL-60(TB) leukemia): 120 nM
- GI50 (OVCAR-8 ovarian): 257 nM
- TGI (OVCAR-8 ovarian): 1230 nM
- GI50 (A498 renal): 226 nM
- TGI (A498 renal): 10700 nM
- GI50 (SK-MEL-28 melanoma): 221 nM
- TGI (SK-MEL-28 melanoma): 18900 nM
- GI50 (HCT-15 colon): 51.9 nM
- TGI (HCT-15 colon): 2060 nM
- GI50 (MALME-3M melanoma): 61.5 nM
- TGI (MALME-3M melanoma): 10300 nM
- GI50 (OVCAR-5 ovarian): 900 nM
- TGI (OVCAR-5 ovarian): 17700 nM
- GI50 (OVCAR-4 ovarian): 369 nM
- TGI (OVCAR-4 ovarian): 7590 nM
- GI50 (COLO 205 colon): 124 nM
- TGI (COLO 205 colon): 448 nM
- GI50 (ACHN renal): 743 nM
- TGI (ACHN renal): 17200 nM
- GI50 (SR leukemia): 16.9 nM
- TGI (SR leukemia): 33.7 nM
- GI50 (HOP-92 NSCLC): 210 nM
- TGI (HOP-92 NSCLC): 11000 nM
- GI50 (EKVX NSCLC): 385 nM
- TGI (EKVX NSCLC): 16900 nM
- GI50 (RXF 393 renal): 155 nM
- TGI (RXF 393 renal): 793 nM
- GI50 (LOX IMVI melanoma): 434 nM
- TGI (LOX IMVI melanoma): 4650 nM
- GI50 (MOLT-4 leukemia): 47.3 nM
- TGI (MOLT-4 leukemia): 135 nM
- GI50 (CCRF-CEM leukemia): 130 nM
- TGI (CCRF-CEM leukemia): 262 nM
- GI50 (NCI-H23 lung): 192 nM
- TGI (NCI-H23 lung): 759 nM
- GI50 (K-562 leukemia): 46.2 nM
- TGI (K-562 leukemia): 211 nM
- GI50 (BT-549 breast): 49 nM
- TGI (BT-549 breast): 2730 nM
- GI50 (NCI-H226 lung): 732 nM
- TGI (NCI-H226 lung): 14200 nM
- GI50 (A549 NSCLC): 546 nM
- TGI (A549 NSCLC): 13800 nM
- GI50 (HS 578T breast): 119 nM
- TGI (HS 578T breast): 284 nM
- GI50 (OVCAR-3 ovarian): 73.1 nM
- TGI (OVCAR-3 ovarian): 286 nM
- GI50 (M14 melanoma): 54 nM
- TGI (M14 melanoma): 266 nM
- GI50 (TK-10 renal): 10400 nM
- TGI (TK-10 renal): 25200 nM
- GI50 (SK-MEL-5 melanoma): 142 nM
- TGI (SK-MEL-5 melanoma): 414 nM
- GI50 (MDA-MB-231 breast): 182 nM
- TGI (MDA-MB-231 breast): 16300 nM
- GI50 (KM12 colon): 74.7 nM
- TGI (KM12 colon): 2770 nM
- GI50 (CAKI-1 renal): 173 nM
- TGI (CAKI-1 renal): 15200 nM
- GI50 (UO-31 renal): 10600 nM
- TGI (UO-31 renal): 23000 nM
- GI50 (SK-OV-3 ovarian): 238 nM
- TGI (SK-OV-3 ovarian): 14100 nM
- GI50 (HOP-62 NSCLC): 199 nM
- TGI (HOP-62 NSCLC): 13400 nM
- GI50 (MDA-MB-435 melanoma): 24.5 nM
- TGI (MDA-MB-435 melanoma): 59.6 nM
- GI50 (SNB-19 CNS): 528 nM
- TGI (SNB-19 CNS): 15300 nM
- GI50 ([…]-0 renal): 377 nM
- TGI (786-0 renal): 12000 nM
- GI50 (MDA-MB-468 breast): 30.2 nM
- TGI (MDA-MB-468 breast): 94.4 nM
- GI50 (NCI-H522 lung): 45.1 nM
- TGI (NCI-H522 lung): 179 nM
- GI50 (NCI-H460 NSCLC): 225 nM
- TGI (NCI-H460 NSCLC): 611 nM
- GI50 (UACC-257 melanoma): 280 nM
- TGI (UACC-257 melanoma): 2340 nM
- GI50 (IGROV1 ovarian): 882 nM
- TGI (IGROV1 ovarian): 17000 nM
- GI50 (SF-268 CNS): 387 nM
- TGI (SF-268 CNS): 11200 nM
